Experimental data: article PMC8125234, “Cardiolipin Stabilizes and Increases Catalytic Efficiency of Carnitine Palmitoyltransferase II and Its Variants S113L, P50H, and Y479F” (International Journal of Molecular Sciences, 2021)
Where a chain is given by its changes, count along the chain named.

Assays:
Assay in all cases: Lipid binding assay (membrane lipid strips)
Details in all cases: 0.4 mg enzyme, 100 pmol lipid spots
[1] = target: T1, CPT II WT (Homo sapiens, UniProt P23786)
T1 construct: made in house; host or cells: Escherichia coli BL21Gold DE
T1 sequence (P23786 26-658): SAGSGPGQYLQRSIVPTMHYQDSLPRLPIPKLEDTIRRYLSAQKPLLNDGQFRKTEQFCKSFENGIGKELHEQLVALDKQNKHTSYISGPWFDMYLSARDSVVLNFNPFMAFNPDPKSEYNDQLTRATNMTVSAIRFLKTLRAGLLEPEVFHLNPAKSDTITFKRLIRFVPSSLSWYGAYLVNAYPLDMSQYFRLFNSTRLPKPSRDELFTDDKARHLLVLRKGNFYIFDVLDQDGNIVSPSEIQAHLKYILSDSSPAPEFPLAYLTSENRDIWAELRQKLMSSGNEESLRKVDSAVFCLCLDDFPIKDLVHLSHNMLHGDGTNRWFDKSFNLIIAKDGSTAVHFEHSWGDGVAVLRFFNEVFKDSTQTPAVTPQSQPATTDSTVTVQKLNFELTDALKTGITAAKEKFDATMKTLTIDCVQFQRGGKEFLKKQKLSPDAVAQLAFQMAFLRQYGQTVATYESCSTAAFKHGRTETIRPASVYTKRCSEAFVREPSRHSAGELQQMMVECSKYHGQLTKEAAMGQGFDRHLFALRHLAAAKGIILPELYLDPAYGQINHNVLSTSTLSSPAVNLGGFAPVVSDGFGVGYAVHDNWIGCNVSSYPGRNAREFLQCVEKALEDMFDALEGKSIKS
Experimental: (§1) Direct interaction of CPT II WT and variants with phospholipids of the mitochondrial membrane was assessed using membrane lipid strips (Echelon Biosciences, Salt Lake City, Utah, USA). The membrane was spotted with 100 pmol of various cell membrane lipids. The assay was performed following manufacturer’s instructions with some modifications explained in the following. At first, the membrane was washed twice in phosphate buffered saline (PBS). After 1 h incubation with blocking solution (3% BSA fatty acid-free in PBS) at room temperature, the membrane was incubated with purified CPT II WT or variant (final amount 0.4 mg protein) for 2 h at 4 °C. After three washing steps, a-His-Probe (H3) mouse monoclonal antibody (Santa Cruz Biotech, Santa Cruz, CA, USA, 1:1000 dilution in PBS containing 3% BSA) was added to the membrane over night at 4 °C. The membrane was washed three times with PBS and incubated with mouse IgG horseradish peroxidase-linked whole antibody (from sheep, Amersham, Little Chalfont, Buckinghamshire, UK) for 1 h at 4 °C. The interaction was visualized by ECL Western blotting detection reagents (Amersham, Little Chalfont, Buckinghamshire, UK).

[2] = target: T2, CPT II variant S113L (Homo sapiens, UniProt P23786, S113L)
T2 construct: made in house; host or cells: Escherichia coli BL21Gold DE
T2 sequence (P23786 26-658 S113L): T1 sequence (P23786 26-658) with S88L
Experimental: as §1

[3] = target: T3, CPT II variant Y479F (Homo sapiens, UniProt P23786, Y479F)
T3 construct: made in house; host or cells: Escherichia coli BL21Gold DE
T3 sequence (P23786 26-658 Y479F): T1 sequence (P23786 26-658) with Y454F
Experimental: as §1

Measured: Signal for interaction on membrane lipid strips

Cardiolipin [CL]
clearly proven: all assays above
